The text below walks through data of patent US20220170096A1, “INTERLEUKIN-4-INDUCED GENE 1 (IL4I1) AS A BIOMARKER AND USES THEREOF” (DEUTSCHES KREBSFORSCHUNGSZENTRUM STIFTUNG DES OEFFENTLICHEN …, priority 2019, published 2022).

The subject of one data set is AHR. The data set can be described thus: AHR target gene expression (microarray, qRT-PCR) in glioblastoma cells treated with IL4I1 metabolites. It counts as cell-based, human. The following applies: U-87MG cells; for induction of the AHR target gene TIPARP (mRNA): 24 h, KynA 50 μM; for modulation of AHR target genes / AHR activation signature genes: 40 μM for 24 h (microarray), TIPARP mRNA 24 h. On the procedure: Array datasets—The affymetrix microarray chips “human gene 2.0 ST” were analyzed using the oligo package and annotated using NetAffx (14). Raw CEL files were RMA normalized and summarized. Differential gene expression was performed using the limma pipeline for microarrays (15).
For treatment of adherent cells with established and hypothetical AHR ligands, 4×10^5 cells per well were seeded in six well plates and incubated for 24 h prior to treatment. Non-adherent cells were seeded in 24 well plates at 5×10^5 cells in 1 mL and treated immediately. For verification of the generated AHR signature, cells were treated with the established AHR agonist Kyn (50 μM, SigmaAldrich, K8625) for 24 h. […] When using the AHR antagonist SR1 (1 μM, Merck Millipore, 182706), cells were treated for 24 h alone or in combination with AHR ligands.
Total RNA was harvested from cultured cells using the RNeasy Mini Kit (Qiagen, 80204) followed by cDNA synthesis using the High Capacity cDNA reverse transcriptase kit (Applied Biosystems, 4368813). A StepOne Plus real-time PCR system (Applied Biosystems) was used to perform real-time PCR of cDNA samples using SYBR Select Master mix (Thermo Scientific, 4309155). Data was processed and analysed using the StepOne Software v 2.3. Relative quantification of target genes was done against RNA18S as reference gene using the […] method.
(In general: Quantitative PCR measures a nucleic acid by following its amplification.)

For a further data set, the target named is T1, GFP-tagged Ahr (Mus musculus, UniProt P30561).
T1 construct: expressed in transfected cells; host or cells: murine hepatoma tao BpRc1 cells (deficient of endogenous Ahr), retroviral transfection, tet-off system
T1 sequence (P30561 10-848): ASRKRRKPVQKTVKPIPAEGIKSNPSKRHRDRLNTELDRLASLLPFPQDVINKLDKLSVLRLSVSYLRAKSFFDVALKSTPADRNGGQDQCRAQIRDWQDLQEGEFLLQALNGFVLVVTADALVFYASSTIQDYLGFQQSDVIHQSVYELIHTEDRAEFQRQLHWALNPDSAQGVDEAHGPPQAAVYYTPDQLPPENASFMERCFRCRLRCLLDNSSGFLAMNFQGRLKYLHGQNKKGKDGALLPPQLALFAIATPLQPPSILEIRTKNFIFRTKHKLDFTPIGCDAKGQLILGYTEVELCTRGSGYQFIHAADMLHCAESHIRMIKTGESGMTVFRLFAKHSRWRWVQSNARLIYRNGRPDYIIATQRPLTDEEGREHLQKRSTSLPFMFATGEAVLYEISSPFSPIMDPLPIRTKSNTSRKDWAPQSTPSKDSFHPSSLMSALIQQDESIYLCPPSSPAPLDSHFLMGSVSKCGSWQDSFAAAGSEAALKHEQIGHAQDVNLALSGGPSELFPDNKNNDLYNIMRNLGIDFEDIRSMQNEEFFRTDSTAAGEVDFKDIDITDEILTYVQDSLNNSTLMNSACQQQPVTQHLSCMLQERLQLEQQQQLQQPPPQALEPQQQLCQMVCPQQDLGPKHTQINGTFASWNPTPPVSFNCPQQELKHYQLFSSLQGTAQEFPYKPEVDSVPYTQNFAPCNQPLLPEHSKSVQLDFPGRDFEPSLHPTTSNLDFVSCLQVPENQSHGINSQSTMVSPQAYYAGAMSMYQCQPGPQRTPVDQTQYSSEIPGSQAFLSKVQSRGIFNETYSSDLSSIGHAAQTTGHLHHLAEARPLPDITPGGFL
The data set can be described thus: AHR nuclear translocation assay in GFP-Ahr expressing tao BpRc1c cells. The following applies: 25 μM, 4 h. It counts as cell-based, murine.

Another data set has as its system U-87MG cells. The data set can be described thus: Metabolites in supernatants of U-87MG cells treated with I3P. It counts as cell-based, human. The following applies: increasing concentrations of I3P, 24 h. On the procedure: For treatment of adherent cells with established and hypothetical AHR ligands, 4×10^5 cells per well were seeded in six well plates and incubated for 24 h prior to treatment. Non-adherent cells were seeded in 24 well plates at 5×10^5 cells in 1 mL and treated immediately. For verification of the generated AHR signature, cells were treated with the established AHR agonist Kyn (50 μM, SigmaAldrich, K8625) for 24 h. In order to investigate the potential of direct and downstream IL4I1 metabolites to activate the AHR, cells were treated with […] When using the AHR antagonist SR1 (1 μM, Merck Millipore, 182706), cells were treated for 24 h alone or in combination with AHR ligands. […] Consumption of phenylalanine, tyrosine and Trp by IL4I1-expressing and non-expressing U-87MG and U-251MG cells was assessed by quantification of the amino acids in the cell culture supernatants after 120 h incubation. […] The derivatization product was separated at 42° C. on an Acquity BEH C18 column (Waters) using an Acquity H-class UPLC system (Waters) coupled to an Acquity fluorescence detector (FLR) (Waters). Samples were analyzed on the UPLC as described before by Yang et. al., 2015^21. […] Trp was detected by fluorescence (Acquity FLR detector, Waters, excitation: 254 nm, emission: 401 nm). Standards were used for quantification (Sigma). […] For targeted quantification of the metabolites, MRM mode was used. […]

A short description of data set [1]: Conversion of I3P to kynurenic acid in PBS with or without H2O2 (HPLC). The following applies: 3.33 mg/mL I3P in PBS, 24 h, with or without 1 mM H2O2. It counts as physicochemical. On the procedure: Black, lowest peak: 3.33 mg/mL I3P in phosphate buffered saline (PBS) incubated for 24 h. Grey peak: 3.33 mg/mL I3P incubated in PBS in the presence of 1 mM H2O2 for 24 h (n=2). c-e, TIPARP mRNA expression in U-87MG cells treated with IAA (c), ILA (d), I3CA (e) or vehicle for 24 h (n=3). f, TIPARP mRNA expression in shCtrl and shAHR U-87MG cells treated with 50 μM KynA or vehicle for 24 h (n=3). g, Representative images of GFP-Ahr expressing tao BpRc1c cells treated with either vehicle or 50 μM KynA for 1 h. n values represent independent experiments. Data are presented as mean±S.E.M and were analyzed by two-tailed paired student's t-test (a, b, h) or repeated measures ANOVA with Dunnett's multiple comparisons test (c, e-g). *P<0.05, **P<0.01, ***P<0.001, ****P<0.0001. n.s., not significant.

Experimental for GFP-tagged Ahr: Stably transfected tao BpRc1c cells, expressing a GFP-tagged Ahr under tetracycline control, were used to visualize nuclear translocation of Ahr.
For induction of GFP-Ahr expression in the transgenic tao BpRc1c cells, cells were taken off tetracycline 24 h before translocation assays. Assays were performed in black clear bottom 96-well plates (BD, #353219) with 7500 cells/well in 150 μl/well. Metabolites were added in 50 μL/well induction medium. Cells were exposed for 4h to 25 μM PP, HPP, and I3P respectively. Medium was discarded and cells fixed with pre-warmed 3.7% formaldehyde in PBS (10 min at RT). After fixation cells were washed with detergent buffer (DB, 0.01% Tween20 in PBS, Sigma Aldrich), followed by permeabilization with 0.1% Triton X-100 in PBS (Sigma Aldrich) for 15 min at RT. Cells were washed twice with DB and incubated with 0.4 ng/ml Hoechst 33342 (Sigma Aldrich) for 30 min at RT protected from light. After washing with DB and PBS cells were stored in PBS at 4° C. until translocation analysis. Translocation by KynA was monitored by live cell imaging after 3 h of exposure including the appropriate negative medium control. Translocation of Ahr by the different metabolites was monitored on a BD Pathway Imager 855.

In the case of `O=Cc1c[nH]c2ccccc12` [I3CA, indole-3-carboxaldehyde], the “induction of the AHR target gene TIPARP (mRNA)” value in the data set with AHR is given as “induced TIPARP transcripts”. On the same count and under the same terms, the same measure for `O=C(O)C(O)Cc1c[nH]c2ccccc12` (stereo not shown) [I3L, indole-3-lactic acid]: “did not observe relevant induction”. Regarding `O=C(O)C(=O)Cc1c[nH]c2ccccc12` [I3P, indole-3-pyruvic acid], in the data set with AHR, the “modulation of AHR target genes / AHR activation signature genes” value is given as “significant regulation”. On GFP-tagged Ahr, the “nuclear translocation of the AHR” value was “observed only in response to I3P”. Further, the “IAA, I3CA and kynurenic acid in the cell supernatants after treatment” value with U-87MG cells is “dose-dependent increase”. For the same compound, the “formation of kynurenic acid from I3P” value in data set [1] was “formed spontaneously from I3P, which was enhanced in the presence of H2O2”. Turning to `O=C(O)C(=O)Cc1ccccc1` [PP, phenylpyruvic acid], the “modulation of AHR target genes / AHR activation signature genes” value with AHR is “did not elicit relevant modulation”.
